Measurements: PubChem BioAssay (NCI)
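How tested: cells in 96-well plates exposed to compound for 48 hours at five concentrations. At the GI50, growth is halved. TGI denotes the concentration required for complete inhibition of growth.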

Columns and labels:
Assay in all cases: NCI tumour cell line growth inhibition, 48 h
[1] = tested on: OVCAR-4 ovarian
[2] = tested on: LXFL 529 NSCLC
[3] = tested on: KM20L2 colon
[4] = tested on: EKVX NSCLC
[5] = tested on: TK-10 renal
[6] = tested on: K-562 leukemia
[7] = tested on: HT29 colon
[8] = tested on: SF-268 CNS
[9] = tested on: OVCAR-3 ovarian
[10] = tested on: OVCAR-8 ovarian
[11] = tested on: A498 renal
[12] = tested on: SK-OV-3 ovarian
[13] = tested on: HL-60(TB) leukemia
[14] = tested on: M14 melanoma
[15] = tested on: ACHN renal
[16] = tested on: HCT-116 colon
[17] = tested on: UO-31 renal
[18] = tested on: SN12C renal
[19] = tested on: SNB-78 CNS
[20] = tested on: SNB-19 CNS
[21] = tested on: MOLT-4 leukemia
[22] = tested on: XF 498 CNS
[23] = tested on: HCC-2998 colon
[24] = tested on: SR leukemia
[25] = tested on: HOP-62 NSCLC
[26] = tested on: SK-MEL-28 melanoma
[27] = tested on: SK-MEL-2 melanoma
[28] = tested on: LOX IMVI melanoma
[29] = tested on: NCI-H522 lung
[30] = tested on: DMS 114 small cell lung
[31] = tested on: RPMI-8226 leukemia
[32] = tested on: DLD-1 colon
[33] = tested on: NCI-H460 lung
[34] = tested on: SK-MEL-5 melanoma
[35] = tested on: NCI-H23 lung
[36] = tested on: MALME-3M melanoma
[37] = tested on: SW-620 colon
[38] = tested on: HCT-15 colon
[39] = tested on: 786-0 renal
[40] = tested on: OVCAR-5 ovarian
[41] = tested on: M19-MEL melanoma
[42] = tested on: SF-295 CNS
[43] = tested on: IGROV1 ovarian
[44] = tested on: KM12 colon
[45] = tested on: CCRF-CEM leukemia
[46] = tested on: UACC-257 melanoma
[47] = tested on: A549 NSCLC
[48] = tested on: UACC-62 melanoma
[49] = tested on: COLO 205 colon
[50] = tested on: U251 CNS
[51] = tested on: RXF 393 renal
[52] = tested on: RXF-631 renal
[53] = tested on: HOP-92 NSCLC
[54] = tested on: SNB-75 CNS
[55] = tested on: NCI-H226 lung
[56] = tested on: HOP-18 NSCLC
[57] = tested on: CAKI-1 renal
[58] = tested on: DMS 273 small cell lung
[59] = tested on: SF-539 CNS

Compound: NC(CSSCC(N)Cc1ccccc1)Cc1ccccc1 (stereo not given)
- TGI [1]: > 100 µM
- TGI [2]: > 100 µM
- TGI [3]: > 100 µM
- TGI [4]: > 100 µM
- TGI [5]: > 100 µM
- TGI [6]: > 100 µM
- TGI [7]: > 100 µM
- TGI [8]: > 100 µM
- TGI [9]: > 100 µM
- TGI [10]: > 100 µM
- TGI [11]: > 100 µM
- TGI [12]: > 100 µM
- TGI [13]: 74.4 µM
- TGI [14]: 63.4 µM
- TGI [15]: > 100 µM
- TGI [16]: > 100 µM
- TGI [17]: > 100 µM
- TGI [18]: > 100 µM
- TGI [19]: > 100 µM
- TGI [20]: > 100 µM
- TGI [21]: > 100 µM
- TGI [22]: 57.2 µM
- TGI [23]: > 100 µM
- TGI [24]: 91.7 µM
- TGI [25]: > 100 µM
- TGI [26]: > 100 µM
- TGI [27]: 88.7 µM
- TGI [28]: 84.4 µM
- TGI [29]: 30.9 µM
- TGI [30]: > 100 µM
- TGI [31]: > 100 µM
- TGI [32]: > 100 µM
- TGI [33]: > 100 µM
- TGI [34]: 50.4 µM
- TGI [35]: > 100 µM
- TGI [36]: > 100 µM
- TGI [37]: > 100 µM
- TGI [38]: > 100 µM
- TGI [39]: > 100 µM
- TGI [40]: > 100 µM
- TGI [41]: > 100 µM
- TGI [42]: > 100 µM
- TGI [43]: > 100 µM
- TGI [44]: 94 µM
- TGI [45]: > 100 µM
- TGI [46]: > 100 µM
- TGI [47]: > 100 µM
- TGI [48]: 44.9 µM
- TGI [49]: > 100 µM
- TGI [50]: > 100 µM

Compound: Cn1cccc1/C=C/c1cc(Br)c(/C=C/c2cccn2C)cc1Br
- TGI [51]: 25.1 µM
- TGI [1]: 20.2 µM
- TGI [2]: 25 µM
- TGI [3]: 58.4 µM
- TGI [4]: 37.2 µM
- TGI [5]: 45.3 µM
- TGI [6]: 43.9 µM
- TGI [7]: 41.5 µM
- TGI [8]: 91.9 µM
- TGI [9]: 33.6 µM
- TGI [11]: 45.1 µM
- TGI [12]: 30.3 µM
- TGI [52]: 49.4 µM
- TGI [13]: 32.4 µM
- TGI [14]: 57.9 µM
- TGI [15]: 26.1 µM
- TGI [53]: 39.5 µM
- TGI [16]: 43.4 µM
- TGI [17]: 48 µM
- TGI [18]: 72.4 µM
- TGI [20]: 92.8 µM
- TGI [21]: 43.2 µM
- TGI [23]: 16.6 µM
- TGI [26]: 31.5 µM
- TGI [27]: 37.2 µM
- TGI [28]: 56.4 µM
- TGI [29]: 28.3 µM
- TGI [30]: 35.2 µM
- TGI [31]: 41.3 µM
- TGI [32]: 4.97 µM
- TGI [33]: 45.9 µM
- TGI [54]: 16.5 µM
- TGI [34]: 32 µM
- TGI [55]: 39.5 µM
- TGI [36]: 31.2 µM
- TGI [56]: 28 µM
- TGI [37]: 56.3 µM
- TGI [38]: 24.6 µM
- TGI [39]: 20.2 µM
- TGI [40]: > 100 µM
- TGI [57]: 39.7 µM
- TGI [41]: 53.7 µM
- TGI [42]: 52.8 µM
- TGI [58]: 38.3 µM
- TGI [43]: 53.2 µM
- TGI [44]: 21.7 µM
- TGI [45]: 62.2 µM
- TGI [59]: 31.5 µM
- TGI [46]: > 100 µM
- TGI [47]: 39.1 µM
- TGI [48]: 43.1 µM
- TGI [49]: 55 µM
- TGI [50]: 28.6 µM

Compound: CCC[CH2][Sn]1([CH2]CCC)[O]CC(C)[O]1 (stereo not given)
- GI50 [51]: 1.46 µM
- TGI [51]: 2.99 µM
- GI50 [1]: 1.59 µM
- TGI [1]: 3.45 µM
- GI50 [2]: 0.149 µM
- TGI [2]: 1.35 µM
- GI50 [3]: 2.53 µM
- TGI [3]: 6.86 µM
- GI50 [4]: 1.83 µM
- TGI [4]: 4 µM
- GI50 [5]: 1.26 µM
- TGI [5]: 2.56 µM
- GI50 [6]: 0.367 µM
- TGI [6]: 1.97 µM
- GI50 [7]: 1.74 µM
- TGI [7]: 3.44 µM
- GI50 [9]: 1.37 µM
- TGI [9]: 2.67 µM
- GI50 [10]: 1.59 µM
- TGI [10]: 3.47 µM
- GI50 [11]: 2.6 µM
- TGI [11]: 4.68 µM
- GI50 [12]: 3.56 µM
- TGI [12]: 10.4 µM
- GI50 [13]: 0.661 µM
- TGI [13]: 2.62 µM
- GI50 [14]: 1.87 µM
- TGI [14]: 4.87 µM
- GI50 [15]: 1.54 µM
- TGI [15]: 2.89 µM
- GI50 [53]: 1.16 µM
- TGI [53]: 2.52 µM
- GI50 [16]: 1.78 µM
- TGI [16]: 3.43 µM
- GI50 [17]: 1.54 µM
- TGI [17]: 3.1 µM
- GI50 [18]: 1.39 µM
- TGI [18]: 2.78 µM
- GI50 [19]: 0.301 µM
- TGI [19]: 0.909 µM
- GI50 [20]: 1.32 µM
- TGI [20]: 2.64 µM
- GI50 [21]: 0.56 µM
- TGI [21]: 3 µM
- GI50 [22]: 0.99 µM
- TGI [22]: 2.33 µM
- GI50 [23]: 1.46 µM
- TGI [23]: 2.91 µM
- GI50 [24]: 0.515 µM
- TGI [24]: 2.27 µM
- GI50 [25]: 2.63 µM
- TGI [25]: 6.62 µM
- GI50 [26]: 2.24 µM
- TGI [26]: 3.96 µM
- GI50 [27]: 0.54 µM
- TGI [27]: 1.83 µM
- GI50 [28]: 1.23 µM
- TGI [28]: 2.66 µM
- GI50 [29]: 0.306 µM
- TGI [29]: 1.07 µM
- GI50 [30]: 1.11 µM
- TGI [30]: 2.49 µM
- GI50 [31]: 0.309 µM
- TGI [31]: 2.07 µM
- GI50 [32]: 1.47 µM
- TGI [32]: 3.32 µM
- GI50 [33]: 2.94 µM
- TGI [33]: 13.9 µM
- GI50 [54]: 0.57 µM
- TGI [54]: 2.3 µM
- GI50 [34]: 1.47 µM
- TGI [34]: 3.26 µM
- GI50 [55]: 2.11 µM
- TGI [55]: 4.62 µM
- GI50 [35]: 0.749 µM
- TGI [35]: 2.08 µM
- GI50 [36]: 0.544 µM
- TGI [36]: 2.22 µM
- GI50 [37]: 0.46 µM
- TGI [37]: 1.83 µM
- GI50 [38]: 1.1 µM
- TGI [38]: 2.35 µM
- GI50 [39]: 1.48 µM
- TGI [39]: 2.84 µM
- GI50 [40]: 2.03 µM
- TGI [40]: 7.45 µM
- GI50 [57]: 0.24 µM
- TGI [57]: 1.23 µM
- GI50 [41]: 0.803 µM
- TGI [41]: 2.23 µM
- GI50 [42]: 1.4 µM
- TGI [42]: 2.74 µM
- GI50 [58]: 1.26 µM
- TGI [58]: 2.66 µM
- GI50 [43]: 1.88 µM
- TGI [43]: 3.94 µM
- GI50 [44]: 2.1 µM
- TGI [44]: 6.23 µM
- GI50 [45]: 0.314 µM
- TGI [45]: 0.97 µM
- GI50 [59]: 1.46 µM
- TGI [59]: 3.46 µM
- GI50 [46]: 1.07 µM
- TGI [46]: 2.56 µM
- GI50 [47]: 9.72 µM
- TGI [47]: 21.8 µM
- GI50 [48]: 1.31 µM
- TGI [48]: 2.91 µM
- GI50 [49]: 1.01 µM
- TGI [49]: 2.29 µM
- GI50 [50]: 1.39 µM
- TGI [50]: 2.72 µM
